Experimental findings from PMC9727182, “Identification of pharmacokinetic markers for safflower injection using a combination of system pharmacology, multicomponent pharmacokinetics, and quantitative proteomics study” (Frontiers in Pharmacology, 2022) are described below.

In data set [1] the test system is H9c2 cardiomyocytes injured by H2O2. Description: Protection of cardiomyocytes injured by H2O2 (MTT). The class given is cell-based. How it is done: H9c2 cardiomyocytes obtained from Cell Bank of the Chinese Academy of Sciences (Shanghai, China) were cultured in DMEM (high glucose) supplemented with 1% P/S and 15% FBS in 5% CO2 at 37°C. The cells were collected with 0.25% trypsin, followed by re-seeding in 96-well multiplates with a density of 5×10^3 cells per well. The cell experiments were grouped as follows: normal group, model group (H2O2), administration groups and positive control groups (N-Acetyl-L-cysteine, NAC). […] After that, cells were incubated with 0.5 mg/ml of MTT for 4 h under standard condition, followed by addition of 150 µl DMSO into every well. The cell supernatants were finally removed and the optical density (OD) was recorded at 570 nm using a microplate reader (Thermo Fisher Scientific, United States). The protection rate of the compounds on H9c2 cardiomyocytes was calculated as (OD valueadministration group (or NAC group)-OD valuemodel group)/(OD valuenormal group-OD valuemodel group) ×100%.

The nature of data set [2]: Multicomponent pharmacokinetics in rat plasma after i.v. safflower injection (SI). Conditions: male, Sprague-Dawley, rat, plasma, intravenous, 2 ml/kg. How it is done:
The animal experiments were approved by the Animal Care and Use Committee of the College of Animal Science (College of Bee Science), Fujian Agriculture and Forestry University (Approval Number: PZCASFAFU21012). 250 ± 20 g of male Sprague-Dawley (SD) rats were provided by Lab Animal Center in Fujian Medical University (Fuzhou, China).
Ten rats were divided into three groups (Low dose group, n = 4; medium and high groups, n = 3, respectively). […] For each rat, 2 ml of physiological saline was supplemented after 30 min sampling via intraperitoneal injection. The plasma samples were obtained by centrifugation at 3,000 rpm for 10 min and stored at −20°C until analysis.
Clear supernatant (5 μl) was injected into HPLC-MS for bioanalysis.
The sample was separated on a RD-C18 column (4.6 mm × 50 mm, 3.5 μm, Zhongpu Develop, China). The mobile phase incudes water with 0.1% acetic acid (A) and acetonitrile (B). […] The column temperature, flow rate and injection volume were set at 30°C, 0.5 ml/min and 5 μl, respectively.
Non-compartmental model was used to calculate the PK parameters by DAS 3.0 software (Chinese Pharmacologic Society, Beijing, China). A single-tailed t-test was carried out in the study.

A short description of data set [3]: Stability in diluted SI at room temperature. Conditions: analyzed at 0, 2, 4, 8, 12, 24, and 48 h.
The subject of data set [4] is H9c2 cardiomyocytes injured by H2O2. Kind of data set: TMT quantitative proteomics of H2O2-injured cardiomyocytes. Particulars: 195 μM. The class given is cell-based. The method, then:
The procedures for cell culture, group and administration are similar to those in “2.7. […] Briefly, the difference is that H9c2 cells were seeded and cultured in a culture flask with a bottom area of 25 cm^2 with a density 1×10^5 cells/ml. After treatment, about 3×10^7 cells per group were collected for the next quantitative proteomics investigation, which was done by Jingjie PTM Biolabs (Hangzhou, China). All the procedures for quantitative proteomics can be found in the section of “5. Quantitative proteomics” of the Supplementary Material.
The quantitative proteomics study was carried out according to our previous report ([Li et al., 2022]). Relative quantitative values of proteins in two samples were compared via t-test. […] The identified difference proteins between groups were subjected further to principal component analysis (PCA). […] The subcellular structure location was analyzed using these proteins as objectives.

The molecule `CC(=O)N[C@@H](CS)C(=O)O` [NAC, N-Acetyl-L-cysteine, reference compound] showed a protection rate in data set [1] (1 mM, positive drug) of 6.45%.
As for `Nc1ncnc2c1ncn2[C@@H]1O[C@H](CO)[C@@H](O)[C@H]1O` [adenosine], the concentration at 15 min in data set [2] was under 0.5 ng/mL. For the same molecule, the “Stability RSD” value in data set [3] is given as 2.74%.
Consider `Nc1ccn([C@@H]2O[C@H](CO)[C@@H](O)[C@H]2O)c(=O)n1` [cytidine], for which the concentration at 15 min in data set [2] is under 0.5 ng/mL. In data set [3], the “Stability RSD” value was 1.85%.
In data set [2], `Nc1nc2c(ncn2[C@@H]2O[C@H](CO)[C@@H](O)[C@H]2O)c(=O)[nH]1` [guanosine] gave a concentration at 15 min of under 0.5 ng/mL.
`O=c1c(O)c(-c2ccc(O)cc2)oc2cc(O)cc(O)c12` [kaempferol] registered a concentration at 15 min in data set [2] of under 0.5 ng/mL.
Consider `O=c1c(O)c(-c2ccc(O)c(O)c2)oc2cc(O)cc(O)c12` [quercetin], for which the concentration at 15 min in data set [2] was under 0.5 ng/mL. Further, the “Stability RSD” value in data set [3] is listed as 2.51%.
For the molecule `O=C(O)/C=C/c1ccccc1` [trans-cinnamic acid], the “Stability RSD” value in data set [3] is reported as 1.86%.
In data set [2], `O=c1ccn([C@@H]2O[C@H](CO)[C@@H](O)[C@H]2O)c(=O)[nH]1` [uridine] gave a concentration at 15 min of under 0.5 ng/mL. Besides, the “Stability RSD” value in data set [3] is listed as 2.81%.
Turning to hydroxysafflor yellow A [HSYA], the “cell viability vs. model group” value in data set [1] (10 μM, pretreated 24 h, 250 μM H2O2 2 h) is “higher cell viability than the model group”. The “anti-H2O2 injury effect (protection rate)” value in data set [1] (1, 5 and 10 μM) is on record as “concentration-dependent”. Moreover, the protection rate result in data set [1] ([…] μM, preliminary test at maximum detected plasma concentration) is “about 26%”. Further, the “proteins significantly downregulated vs. M group” value in data set [4] (fold change ≤1/1.5, p <0.05) is 205 proteins. Besides, the “proteins significantly upregulated vs. M group” value in data set [4] (fold change ≥1.5, p <0.05) amounted to 148 proteins. In data set [4] (vs. M group), the KEGG pathway regulation entry is “downregulated the ribosome pathway and upregulated the lysosome pathway”; the “changed protein expression located at the cytoplasm” value came to 41.64%; the “changed protein expression located at the nucleus” value is reported as 27.48%.
